≈ marks a conversion by molar mass, not a printed value. Starred links: 1 amine or outer side, 2 acyl side, 3 side chain; linkers in the order of their positions; H or OH if unused. Positions of bridges follow the written chain, without caps; N, C: chain ends. Non-standard residues stand in square brackets, D forms with d. Residues, ends and D or L forms follow the SMILES beside them. Chains are numbered I, II in the order given. Actinocin(9to1) = Cc1c2oc3c(C)ccc(C(=O)[*:1])c3nc-2c(C(=O)[*:2])c(N)c1=O; X2 = CC1CCC(C(=O)[*:2])N1[*:1]; NMeV = CN[CH](C(=O)O)C(C)C; Sar = CNCC(=O)O
Experiments:
[1] = test system: Clostridium perfringens A9635; format: cell-based; conditions: GAM agar
[2] = test system: aerobic gram-positive bacteria; assay: Antimicrobial activity, agar dilution, summary in words; format: cell-based; conditions: summary of Table 6
Protocol: (§1) The antimicrobial activity of BU-3292T A and B was determined against aerobic and anaerobic bacteria and fungi by a serial two-fold agar dilution method. BU-3292T A and B are active against aerobic gram-positive bacteria, and weakly active against anaerobic gram-negative bacteria and fungi.

[3] = test system: gram-negative bacteria; assay: as above; format: cell-based; conditions: summary of Table 6
Protocol: as §1

[4] = test system: anaerobic gram-negative bacteria and fungi; assay: as above; format: cell-based; conditions: summary of Table 6
Protocol: as §1

[5] = Body weight change in P388-bearing mice; conditions: QD × 3, ip
Protocol: (§2) BU-3292T components A and B were tested for in vitro cytotoxicity against murine and human tumor cells and for in vivo antitumor activity in mice. Actinomycin D was used as a reference compound in both in vitro and in vivo experiments. B16-F10 (murine melanoma) and Moser (human colorectal carcinoma) cells were grown to the logarithmic phase in enriched Eagle minimum essential medium (MEM) supplemented with fetal calf serum (FCS, 10%) and kanamycin (60 mcg/ml), harvested and inoculated into wells of a 96-well microtiter plate with test materials at the concentrations of 3.0×10^4 and 6.0×10^4 cells/ml, respectively. They were incubated at 37° C. in humidified atmosphere of 5% CO2 and 95% air for 72 hours. The cytotoxic activity was determined colorimetrically at 540 nm after staining viable cells with neutral red. […] Inhibitory effects of BU-3292T component A on macromolecule (DNA, RNA and protein) synthesis were determined in vitro. Cultured L1210 murine leukemia cells (5×10^5 cells/ml) were incubated with test materials at 37° C. for 15 minutes and then further incubated for 60 minutes after the addition of labelled precursor, ^3 H-thymidine, ^14 C-uridine or ^3 H-leucine, into the cultured mixtures. After washing with chilled 5% trichloroacetic acid solution, the radioactivity incorporated into the acid-insoluble fraction of the tumor cells was determined in a liquid scintillation counter. […] In vivo antitumor activities of BU-3292T components A and B were tested in tumor-bearing female CDF mice. After the intraperitoneal implantation of diluted ascitic fluid with 1.0 ×10^6 lymphocytic leukemia P388 cells into the mice, test compounds were administered intraperitoneally once a day on days 1, 2 and 3 (QD×3).

[6] = Solubility; format: physicochemical
Text: BU-3292T A is isolated as a white amorphous powder, while BU-3292T B is an orange-red powder. […] The compounds give positive responses to iodine and Rydone-Smith reagents, but negative responses to Sakaguchi, ferric chloride, ninhydrin and anthrone reagents. […] The IR spectra of BU-3292T A and B are illustrated in FIGS. 1 and 2, respectively.

[7] = test system: B16-F10 (murine melanoma) cells; assay: In vitro cytotoxicity, neutral red staining; format: cell-based
Protocol: as §2

[8] = test system: Moser (human colorectal carcinoma) cells; assay: In vitro cytotoxicity, neutral red staining; format: cell-based; conditions: 72 hours
Protocol: as §2

[9] = test system: lymphocytic leukemia P388; assay: Antitumor activity against P388 leukemia (ip); format: in vivo, mice; conditions: for MST (Median survival time) / T/C: QD × 3, ip
Protocol: as §2

[10] = test system: Staphylococcus aureus smith; assay: Antimicrobial activity, serial two-fold agar dilution method; format: cell-based; conditions: Nutrient agar
Protocol: as §1

[11] = test system: Propionibacterium acnes A21933; assay: as above; format: cell-based; conditions: GAM agar
Protocol: as §1

[12] = test system: Trichophyton mentagrophytes D155; assay: as above; format: cell-based; conditions: Sabouraud dextrose agar
Protocol: as §1

[13] = test system: Klebsiella pneumoniae D11; assay: as above; format: cell-based; conditions: Nutrient agar
Protocol: as §1

[14] = test system: Streptococcus faecalis A9612; assay: as above; format: cell-based; conditions: Nutrient agar
Protocol: as §1

[15] = test system: Bacteroides fragilis A22693; assay: as above; format: cell-based; conditions: GAM agar
Protocol: as §1

[16] = test system: Bacillus subtilis PCI-219; assay: as above; format: cell-based; conditions: Nutrient agar
Protocol: as §1

[17] = test system: Staphylococcus epidermidis D153; assay: as above; format: cell-based; conditions: Nutrient agar
Protocol: as §1

[18] = test system: Candida albicans IAM 4888; assay: as above; format: cell-based; conditions: Sabouraud dextrose agar
Protocol: as §1

[19] = test system: Streptococcus pyogenes A20201; assay: as above; format: cell-based; conditions: Nutrient agar
Protocol: as §1

[20] = test system: Proteus mirabilis A9554; assay: as above; format: cell-based; conditions: Nutrient agar
Protocol: as §1

[21] = test system: Escherichia coli NIHJ; assay: as above; format: cell-based; conditions: Nutrient agar
Protocol: as §1

[22] = test system: Mucor spinosus IFO 5317; assay: as above; format: cell-based
Protocol: as §1

[23] = test system: Propionibacterium anaerobius A21905; assay: as above; format: cell-based; conditions: GAM agar
Protocol: as §1

[24] = test system: Micrococcus luteus 1001; assay: as above; format: cell-based; conditions: Nutrient agar
Protocol: as §1

[25] = test system: Proteus vulgalis A9436; assay: as above; format: cell-based; conditions: Nutrient agar
Protocol: as §1

[26] = test system: Cryptococcus neoformans IAM 4519; assay: as above; format: cell-based; conditions: Sabouraud dextrose agar
Protocol: as §1

[27] = test system: Fusarium moniliforme A2284; assay: as above; format: cell-based; conditions: Sabouraud dextrose agar
Protocol: as §1

[28] = test system: Staphylococcus aureus 209P; assay: as above; format: cell-based; conditions: Nutrient agar
Protocol: as §1

[29] = test system: Clostridium difficile A21675; assay: as above; format: cell-based; conditions: GAM agar
Protocol: as §1

[30] = test system: Pseudomonas aeruginosa A9930; assay: as above; format: cell-based; conditions: Nutrient agar
Protocol: as §1

[31] = test system: Aspergillus fumigatus IAM 2530; assay: as above; format: cell-based; conditions: Sabouraud dextrose agar
Protocol: as §1

With `Cc1c2oc3c(C)ccc(C(=O)NC4C(=O)NC(C(C)C)C(=O)N5C(C)CCC5C(=O)N(C)CC(=O)N(C)C(C(C)C)C(=O)OC4C)c3nc-2c(C(=O)NC2C(=O)NC(C(C)C)C(=O)N3C(C)CCC3C(=O)N(C)CC(=O)N(C)C(C(C)C)C(=O)OC2C)c(N)c1=O` (centres unmarked) [BU-3292T B] (I: TV[X2][Sar][NMeV] / II: TV[X2][Sar][NMeV]; ester I:1-I:C, II:1-II:C; linker I:N-II:N via Actinocin(9to1); configuration not given here) as the molecule, how does the MIC [1] read?
Its MIC is 25 µg/mL (≈ 19.5 µM).

What about the “activity against aerobic gram-positive bacteria” value [2] of the same molecule?
The value was “active”.

What about the “activity against gram-negative bacteria” value [3] of the same molecule?
The value was “inactive”.

What about the “activity against anaerobic gram-negative bacteria and fungi” value [4] of the same molecule?
Its value is “weakly active”.

What about the “Body weight change on day 4” value ([5]; 0.003 mg/kg/day) of the same molecule?
The value was “+1.0 g”.

What about the “Body weight change on day 4” value ([5]; 0.01 mg/kg/day) of the same molecule?
The value was “+1.0 g”.

And the “Body weight change on day 4” value ([5]; 0.03 mg/kg/day)?
Its value is “+1.0 g”.

And the “Body weight change on day 4” value ([5]; 0.1 mg/kg/day)?
Its value is -1.0 g.

What about the “Body weight change on day 4” value ([5]; 0.3 mg/kg/day) of the same molecule?
Its value is -3.3 g.

What about the “solubility in dimethyl sulfoxide, dimethylformamide, methanol, ethyl acetate and chloroform” value ([6]; dimethyl sulfoxide, dimethylformamide, methanol, ethyl acetate, chloroform) of the same molecule?
The value was “readily soluble”.

And the “solubility in water and other organic solvents” value ([6]; water and other organic solvents)?
Its value is “insoluble”.

And the IC50 ([7]; B16-F10, 72 hours)?
The IC50 was less than 0.00016 µg/mL.

What about the “times stronger against B16-F10 cells than against Moser cells” value ([7]; cytotoxic activity, B16-F10 versus Moser) of the same molecule?
Its value is roughly 400 times.

What about the IC50 [8] of the same molecule?
Its IC50 is 0.06 µg/mL (≈ 0.0467 µM).

And the “MST (Median survival time)” value ([9]; 0.003 mg/kg/day)?
The value was 11.0 days.

And the T/C ([9]; 0.003 mg/kg/day)?
Its T/C is 110%.

And the “MST (Median survival time)” value ([9]; 0.01 mg/kg/day)?
Its value is 12.0 days.

And the T/C ([9]; 0.01 mg/kg/day)?
The T/C was 120%.

What about the “MST (Median survival time)” value ([9]; 0.03 mg/kg/day) of the same molecule?
Its value is 14.0 days.

What about the T/C ([9]; 0.03 mg/kg/day) of the same molecule?
Its T/C is 140%.

What about the “MST (Median survival time)” value ([9]; 0.1 mg/kg/day) of the same molecule?
The value was 16.0 days.

What about the T/C ([9]; 0.1 mg/kg/day) of the same molecule?
Its T/C is 160%.

And the “MST (Median survival time)” value ([9]; 0.3 mg/kg/day)?
Its value is 8.0 days.

What about the T/C ([9]; 0.3 mg/kg/day) of the same molecule?
The T/C was 80%.

And the “MST (Median survival time)” value ([9]; 1 mg/kg/day)?
Its value is “Tox”.

What about the T/C ([9]; 1 mg/kg/day) of the same molecule?
The T/C was “Tox”.

What about the “maximum T/C value” ([9]; anti-P388 leukemic activity, QD×3, ip) of the same molecule?
Its value is 160%.

And the MIC [10]?
Its MIC is 1.6 µg/mL (≈ 1.25 µM).

And the MIC [11]?
Its MIC is 12.5 µg/mL (≈ 9.74 µM).

What about the MIC [12] of the same molecule?
The MIC was greater than 100 µg/mL.

What about the MIC [13] of the same molecule?
Its MIC is 100 µg/mL (≈ 77.9 µM).

What about the MIC [14] of the same molecule?
The MIC was 0.8 µg/mL (≈ 0.623 µM).

What about the MIC [15] of the same molecule?
The MIC was greater than 100 µg/mL.

And the MIC [16]?
The MIC was 0.8 µg/mL (≈ 0.623 µM).

What about the MIC [17] of the same molecule?
The MIC was 1.6 µg/mL (≈ 1.25 µM).

What about the MIC [18] of the same molecule?
The MIC was greater than 100 µg/mL.

What about the MIC [19] of the same molecule?
Its MIC is 0.8 µg/mL (≈ 0.623 µM).

What about the MIC [20] of the same molecule?
The MIC was greater than 100 µg/mL.

What about the MIC [21] of the same molecule?
Its MIC is greater than 100 µg/mL.

And the MIC ([22]; Mucor spinosus IFO 5317, Sabouraud dextrose agar)?
The MIC was 25 µg/mL (≈ 19.5 µM).

What about the MIC ([22]; in vitro against Mucor spinosus IF05317) of the same molecule?
Its MIC is 25 µg/mL (≈ 19.5 µM).

What about the MIC [23] of the same molecule?
Its MIC is 6.3 µg/mL (≈ 4.91 µM).

And the MIC [24]?
The MIC was 0.4 µg/mL (≈ 0.312 µM).

And the MIC [25]?
Its MIC is greater than 100 µg/mL.

What about the MIC [26] of the same molecule?
The MIC was greater than 100 µg/mL.

And the MIC [27]?
Its MIC is 50 µg/mL (≈ 39 µM).

And the MIC [28]?
The MIC was 1.6 µg/mL (≈ 1.25 µM).

And the MIC [29]?
Its MIC is greater than 100 µg/mL.

And the MIC [30]?
Its MIC is greater than 100 µg/mL.

What about the MIC [31] of the same molecule?
The MIC was greater than 100 µg/mL.

From US5114920A, “BU-3292T antibiotics” (priority 1988, dated 1992)
